The results in this text go back to the supplement of paper PMC10307832.

Assay in all cases: relative viability (nuclei count vs DMSO), 5 days (fraction); higher = more cells survive
Compound in test [1]: C1=CC=C(C(=C1)C2=CC=C(C=C2)C3=CSC4=C3C(=C(C(=O)N4)C#N)O)O + CC(=O)Nc1cccc(-n2c(=O)n(C3CC3)c(=O)c3c(Nc4ccc(I)cc4F)n(C)c(=O)c(C)c32)c1 [Trametinib] (partner 0.02 µM)
Summed up: (§1)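 For relative viability, nuclei counts in treated wells were divided by those in vehicle wells. Lung cancer cell lines had been pin-tool dosed in 1536-well plates the day after seeding and cultured for 5 days, then fixed and stained in one step (final 0.05% Triton X-100, 1% formaldehyde, 1 ug/ml Hoechst) and imaged at 4×. Doses were one drug alone or a fixed anchor-drug dose plus five library-drug doses (not always all listed) in √10 steps, and values are duplicate-plate medians.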

Compound in test [2]: O=C(CCCCCCNC(=O)c1cnc(N(c2ccccc2)c2ccccc2)nc1)NO [Ricolinostat] + O=C(c1cc(Cc2n[nH]c(=O)c3ccccc23)ccc1F)N1CCN(C(=O)C2CC2)CC1 [Olaparib] (partner 8 µM)
The method in brief:
as §1

Compound in test [3]: O=C(CCCCCCNC(=O)c1cnc(N(c2ccccc2)c2ccccc2)nc1)NO [Ricolinostat] + N=C(N)NC(=N)NCCc1ccccc1 [Phenformin] (partner 250 µM)
The method in brief: as §1

Compound in test [4]: O=C(CCCCCCNC(=O)c1cnc(N(c2ccccc2)c2ccccc2)nc1)NO [Ricolinostat] + CC1(C)CCC(c2ccc(Cl)cc2)=C(CN2CCN(c3ccc(C(=O)NS(=O)(=O)c4ccc(N[C@H](CCN5CCOCC5)CSc5ccccc5)c(S(=O)(=O)C(F)(F)F)c4)cc3)CC2)C1 [Navitoclax] (partner 0.5 µM)
The method in brief:
as §1

For the cell line HARA, the relative viability in test [1] (first compound 0.08 µM) was found to be 0.689; in test [1] (first compound 0.253 µM), 0.705; in test [1] (first compound 0.8 µM), 0.959; in test [1] (first compound 2.53 µM), 0.659; in test [1] (first compound 8 µM), 0.554; in test [2] (first compound 0.08 µM), 0.855. Moreover, the relative viability in test [2] (first compound 0.253 µM) was found to be 0.889; in test [2] (first compound 0.8 µM), 0.29; in test [2] (first compound 2.53 µM), 0.482; in test [3] (first compound 0.08 µM), 0.411; in test [3] (first compound 0.253 µM), 0.452; in test [3] (first compound 0.8 µM), 0.427. The relative viability in test [3] (first compound 2.53 µM) came out at 0.124; in test [4] (first compound 0.08 µM), 1.1; in test [4] (first compound 0.253 µM) it was 1.1; in test [4] (first compound 0.8 µM), 1.09; in test [4] (first compound 2.53 µM), 1.11.

With A-427, the relative viability in test [1] (first compound 0.08 µM) is 0.688; in test [1] (first compound 0.253 µM), 0.842; in test [1] (first compound 0.8 µM), 0.772; in test [1] (first compound 2.53 µM), 0.746; in test [1] (first compound 8 µM), 0.858; in test [2] (first compound 0.08 µM), 0.572. The relative viability was determined as 0.762 in test [2] (first compound 0.253 µM); 0.586 in test [2] (first compound 0.8 µM); 0.594 in test [2] (first compound 2.53 µM); 0.303 in test [3] (first compound 0.253 µM); 0.298 in test [3] (first compound 0.8 µM); 0.337 in test [3] (first compound 2.53 µM). In addition, the relative viability in test [4] (first compound 0.08 µM) was 0.861; in test [4] (first compound 0.253 µM), 0.906; in test [4] (first compound 0.8 µM), 0.89; in test [4] (first compound 2.53 µM) it was 0.754.

For NCI-H2087, the relative viability in test [1] (first compound 0.08 µM) was 0.283; in test [1] (first compound 0.253 µM), 0.285; in test [1] (first compound 0.8 µM) it was 0.206; in test [1] (first compound 2.53 µM) it was 0.208; in test [1] (first compound 8 µM) it was 0.202; in test [2] (first compound 0.08 µM) it was 0.502. The relative viability in test [2] (first compound 0.253 µM) is 0.588; in test [2] (first compound 0.8 µM) it was 0.671; in test [2] (first compound 2.53 µM) it was 0.357; in test [3] (first compound 0.253 µM), 0.441; in test [3] (first compound 0.8 µM) it was 0.405; in test [3] (first compound 2.53 µM) it was 0.239. The relative viability in test [4] (first compound 0.08 µM) worked out at 0.96; in test [4] (first compound 0.253 µM) it was 1.04; in test [4] (first compound 0.8 µM), 1.02; in test [4] (first compound 2.53 µM), 1.04.

As for NCI-H460, the relative viability was 0.0954 in test [1] (first compound 0.08 µM); 0.101 in test [1] (first compound 0.253 µM); 0.201 in test [1] (first compound 0.8 µM); 0.108 in test [1] (first compound 2.53 µM); 0.151 in test [1] (first compound 8 µM); 0.362 in test [2] (first compound 0.08 µM). The relative viability turned out to be 0.341 in test [2] (first compound 0.253 µM); 0.377 in test [2] (first compound 0.8 µM); 0.159 in test [2] (first compound 2.53 µM); 0.389 in test [3] (first compound 0.08 µM); 0.512 in test [3] (first compound 0.253 µM); 0.494 in test [3] (first compound 0.8 µM). Besides, the relative viability in test [3] (first compound 2.53 µM) amounted to 0.476; in test [4] (first compound 0.08 µM), 1.12; in test [4] (first compound 0.253 µM), 0.93; in test [4] (first compound 0.8 µM) it was 1.08; in test [4] (first compound 2.53 µM) it was 1.21.

Take PC-14: the relative viability in test [1] (first compound 0.08 µM) was determined as 0.758; in test [1] (first compound 0.253 µM) it was 0.925; in test [1] (first compound 0.8 µM) it was 0.912; in test [1] (first compound 2.53 µM), 0.792; in test [1] (first compound 8 µM), 0.623; in test [2] (first compound 0.08 µM) it was 0.265. Besides, the relative viability amounted to 0.257 in test [2] (first compound 0.253 µM); 0.267 in test [2] (first compound 0.8 µM); 0.199 in test [2] (first compound 2.53 µM); 0.364 in test [3] (first compound 0.08 µM); 0.532 in test [3] (first compound 0.253 µM); 0.477 in test [3] (first compound 0.8 µM). Further, the relative viability in test [3] (first compound 2.53 µM) is 0.37; in test [4] (first compound 0.08 µM), 0.968; in test [4] (first compound 0.253 µM) it was 0.947; in test [4] (first compound 0.8 µM), 1.05; in test [4] (first compound 2.53 µM) it was 0.962.

In the case of NCI-H2009, the relative viability came out at 0.226 in test [1] (first compound 0.08 µM); 0.268 in test [1] (first compound 0.253 µM); 0.333 in test [1] (first compound 0.8 µM); 0.249 in test [1] (first compound 2.53 µM); 0.295 in test [1] (first compound 8 µM); 0.67 in test [2] (first compound 0.08 µM). Further, the relative viability in test [2] (first compound 0.253 µM) was 0.663; in test [2] (first compound 0.8 µM), 0.623; in test [2] (first compound 2.53 µM) it was 0.457; in test [3] (first compound 0.08 µM), 0.455; in test [3] (first compound 0.253 µM), 0.46; in test [3] (first compound 0.8 µM), 0.446. The relative viability in test [3] (first compound 2.53 µM) is 0.43; in test [4] (first compound 0.08 µM), 1.14; in test [4] (first compound 0.253 µM), 1.11; in test [4] (first compound 0.8 µM) it was 1.09; in test [4] (first compound 2.53 µM) it was 1.07.

For COR-L 105, the relative viability turned out to be 0.466 in test [1] (first compound 0.08 µM); 0.46 in test [1] (first compound 0.253 µM); 0.482 in test [1] (first compound 0.8 µM); 0.444 in test [1] (first compound 2.53 µM); 0.408 in test [1] (first compound 8 µM); 0.61 in test [2] (first compound 0.08 µM). Besides, the relative viability in test [2] (first compound 0.253 µM) was found to be 0.686; in test [2] (first compound 0.8 µM), 0.797; in test [2] (first compound 2.53 µM) it was 0.962; in test [3] (first compound 0.253 µM), 0.562; in test [3] (first compound 0.8 µM) it was 0.458; in test [3] (first compound 2.53 µM), 0.471. Moreover, the relative viability came out at 0.688 in test [4] (first compound 0.08 µM), 0.833 in test [4] (first compound 0.253 µM), 0.828 in test [4] (first compound 0.8 µM) and 0.722 in test [4] (first compound 2.53 µM).

Regarding NCI-H1993, the relative viability worked out at 0.479 in test [1] (first compound 0.08 µM); 0.502 in test [1] (first compound 0.253 µM); 0.495 in test [1] (first compound 0.8 µM); 0.565 in test [1] (first compound 2.53 µM); 0.542 in test [1] (first compound 8 µM); 0.883 in test [2] (first compound 0.08 µM). In addition, the relative viability in test [2] (first compound 0.253 µM) came out at 0.875; in test [2] (first compound 0.8 µM), 1.02; in test [2] (first compound 2.53 µM), 0.892; in test [3] (first compound 0.253 µM), 0.48; in test [3] (first compound 0.8 µM), 0.508; in test [3] (first compound 2.53 µM) it was 0.339. Also, the relative viability in test [4] (first compound 0.08 µM) came to 0.798; in test [4] (first compound 0.253 µM), 1.11; in test [4] (first compound 0.8 µM), 1.01; in test [4] (first compound 2.53 µM), 1.04.

Take NCI-H1395: the relative viability in test [1] (first compound 0.253 µM) is 1.02; in test [1] (first compound 0.8 µM), 0.974; in test [1] (first compound 2.53 µM) it was 0.938; in test [1] (first compound 8 µM), 1.01; in test [2] (first compound 0.253 µM) it was 0.44; in test [2] (first compound 0.8 µM) it was 0.479. Further, the relative viability came to 0.433 in test [2] (first compound 2.53 µM); 0.48 in test [3] (first compound 0.253 µM); 0.425 in test [3] (first compound 0.8 µM); 0.463 in test [3] (first compound 2.53 µM); 1.13 in test [4] (first compound 0.253 µM); 1.32 in test [4] (first compound 0.8 µM). In addition, in test [4] (first compound 2.53 µM), the relative viability is 1.27.
